Assay results: patent US20110028509A1, “Sulfonamides” (MERCK SERONO SA, priority 2008, published 2011)
pIC50: −log10 of the molar value. Each block holds one compound with its values, some of them ahead of it.

Assays:
CXCR3 [1] = biological target: T1, CXCR3 (Homo sapiens, UniProt P49682); assay: Chemotaxis assay IP10, L1.2 recombinant cells expressing hCXCR3; assay type: cell-based; settings: L1.2 hCXCR3 cells, IP10 around 0.3 nM, 4 hours
T1 sequence (P49682 1-368): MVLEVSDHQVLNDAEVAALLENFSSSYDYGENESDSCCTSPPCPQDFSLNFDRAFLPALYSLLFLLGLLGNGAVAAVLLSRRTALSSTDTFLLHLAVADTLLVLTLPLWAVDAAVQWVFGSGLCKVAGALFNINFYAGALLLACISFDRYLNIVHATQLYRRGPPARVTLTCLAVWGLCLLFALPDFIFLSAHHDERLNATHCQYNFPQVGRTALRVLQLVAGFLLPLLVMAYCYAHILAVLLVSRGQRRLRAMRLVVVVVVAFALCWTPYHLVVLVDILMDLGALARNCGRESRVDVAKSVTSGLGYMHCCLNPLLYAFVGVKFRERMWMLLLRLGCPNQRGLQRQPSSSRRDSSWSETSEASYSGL
Procedure: Human CXCR3 cDNA was amplified by PCR from a human cells cDNA library (Clontech) and subcloned into pcDNA3.1 (Invitrogen). Murine pre-B L1.2 cells were transfected with hCXCR3-pcDNA3.1 and were grown at 37° C., 5% CO2 in RPMI 1640 medium (Invitrogen, USA) supplemented with 5% heat inactivated fetal calf serum (Cancerra, Australia), 2 mM glutamine (Invitrogen), 50 units ml−1 penicillin, 50 μml−1 streptomycin. Stable transfectant clonal populations were selected using 800 μg/ml geneticin.
L1.2 recombinant cells expressing the receptor hCXCR3 were maintained in culture in RPMI 1640 (invitrogen), 5% Foetal Bovine Serum (invitrogen), 2 mM glutamine(invitrogen), 50 u/ml penicillin/streptomycin (invitrogen), at 37° C.-5% CO2—in an H2O saturated incubator. In order to stimulate the expression of the receptor, cells were incubated overnight with 5 mM butyric acid (Sigma)
This mix of cells/compounds was then incubated at 37° C.-5% CO2—in an H2O saturated incubator during 30 minutes. Cells were then dispensed as a drop on each corresponding wells of the chemotaxis system. Cell migration was then induced at 37° C.-5% CO2—in an H2O incubator during 4 hours. Filters were then removed and cells that had migrated were transferred in a black plate (Costar). The plates were stored overnight at −80° C. Cell migration ratio was calculated using the cyquant dye (Molecular Probes-C7026).

CXCR3 [2] = biological target: T1, CXCR3; assay: Radioligand binding, scintillation proximity assay ([125I]IP-10 or [125I]I-TAC competition) on CHO-CXCR3 cell membranes; parameters: host or cells: CHO cells stably expressing hCXCR3; settings: [125I]IP-10, human CXCR3 cell membranes, Cheng-Prusoff; read-out: Binding Ki (μM) IP10
Procedure: Human chinese hamster ovary (CHO) cell line stably expressing hCXCR3 was purchased from Euroscreen (Belgium) and culture in HAM's F12 (Invitrogen) containing 10% heat inactivated fetal calf serum (Cancerra, Australia), 50 units ml−1 penicillin, 50 μml−1 streptomycin, (Invitrogen, USA) and 400 μg/ml geneticin (G418) (Calbiochem, San Diego), according to the manufacturer.
CHO cells expressing the human CXCR3 were disrupted by nitrogen cavitation (Parr Instruments, USA) at 4° C., 800 p.s.i. for 30 min in 50 mM Tris-HCl pH 7.5, 2 mM EDTA, 250 mM Sucrose and protease inhibitors (Roche). Cell membranes were prepared by differential centrifugation (200×g for 10 min, then 100000×g for 60 min). Membranes pellets were re-suspended in 50 mM Tris-HCL pH 7.4, 1 mM EDTA, 10 mM MgCl2, 250 mM sucrose and inhibitor of proteases. Purified CHO-CXCR3 cell membranes were frozen in liquid nitrogen and stored at −80° C.
A scintillation proximity assay was used for radioligand competition and saturation binding assays. For each assay point, 1 to 5 μg of human CXCR3 cell membranes were incubated in a final volume of 100 μl in 96 well plates (Corning, USA) for 120 minutes with shaking at room temperature in presence of 100 μg of wheat germ agglutinin-coated scintillation proximity assay beads (WGA-SPA, RPNQ0001, GE Healthcare), 0.05-0.1 nM [125I]I-TAC (Perkin Elmer, 1366Cie/mmol) or 0.1 nM [125I]IP-10 (Perkin Elmer, 2200 Cie/mmol) in binding buffer (50 mM HEPES/KOH pH 7.4, 10 mM MgCl2, 1 mM CaCl2, 0.1% bovine serum albumin (BSA), 100 mM NaCl with protease inhibitor cocktail tablets (Roche). Assay was performed in presence of 1% dimethylsulphoxide (Me2SO). Binding activity was determined using a 1450 Micro-beta scintillation counter (Wallac, UK). Ki values were calculated using the Cheng-Prusoff equation (Cheng and Prusoff, 1973) and represent the average of at least three independent dose response experiments.

CXCR3 [3] = biological target: T1, CXCR3; assay: Chemotaxis assay ITAC (CXCL11), L1.2-CXCR3 cells; assay type: cell-based; parameters: expressed in transfected cells; settings: 1 nM CXCL11 (I-TAC), 4 hours
Procedure, shortened: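 Murine pre-B L1.2 cells stably expressing human CXCR3, pretreated 24 h with 5 mM butyric acid, preincubated with compound 30 min at 37 °C in 1% DMSO. Migration toward 1 nM CXCL11 (also with compound) through 8 μm filters for 4 h at 37 °C; migrated cells counted with CyQuant GR dye.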

CXCR3 [4] = biological target: T1, CXCR3; assay: CXCR3 Ca2+ mobilization (FLIPR), stable hCXCR3-CHO cell line, I-TAC stimulated; assay type: cell-based; parameters: host or cells: CHO cells stably expressing hCXCR3; settings: hCXCR3-CHO cells, I-TAC 100 nM stimulated Ca2+ response; read-out: Ca-ITAC
Procedure, shortened: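 Ca2+ mobilization triggered by I-TAC (100 nM) measured by FLIPR in a stable hCXCR3-CHO line. Dye-loaded (60 min) cells preincubated with compounds 20 minutes at room temperature; antagonism given relative to the compound-free I-TAC signal set at 100%.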

SMILES: O=C(NCC1CC1)c1ccc(CN(Cc2ccccn2)S(=O)(=O)c2ccc(Cl)cc2)cc1 [Example 5, 4-{[[(4-chlorophenyl)sulfonyl](pyridin-2-ylmethyl)amino]methyl}-N-(cyclopropylmethyl)benzamide]
- IC50 (CXCR3 [1]): 0.2 µM
- Ki (CXCR3 [2]): 0.168 µM

SMILES: O=C(NCc1cccc(Cl)c1)c1ccc(CN(Cc2ccccn2)S(=O)(=O)c2ccc(Cl)cc2)cc1 [Example 6, N-(3-chlorobenzyl)-4-{[[(4-chlorophenyl)sulfonyl](pyridin-2-ylmethyl)amino]methyl}benzamide]
- Ki (CXCR3 [2]): 0.123 µM

SMILES: O=C(NCc1cccs1)c1ccc(CN(Cc2ccccc2)S(=O)(=O)c2ccc(Cl)cc2)cc1 [Example 7, 4-({benzyl[(4-chlorophenyl)sulfonyl]amino}methyl)-N-(2-thienylmethyl)benzamide]
- IC50 (CXCR3 [1]): 0.192 µM
- Ki (CXCR3 [2]): 0.299 µM

SMILES: O=C(NCc1cccc(Cl)c1)c1ccc(CN(Cc2ccccc2)S(=O)(=O)c2ccc(Cl)cc2)nc1 [Example 8, 6-({benzyl[(4-chlorophenyl)sulfonyl]amino}methyl)-N-(3-chlorobenzyl)nicotinamide]
- IC50 (CXCR3 [1]): 0.369 µM
- Ki (CXCR3 [2]): 0.64 µM

SMILES: O=C(NC1(c2ccccc2)CC1)c1ccc(CN(Cc2ccccc2)S(=O)(=O)c2ccc(Cl)cc2)cc1 [Example 10, 4-({benzyl[(4-chlorophenyl)sulfonyl]amino}methyl)-N-(1-phenylcyclopropyl)benzamide]
- IC50 (CXCR3 [1]): 0.238 µM
- Ki (CXCR3 [2]): 0.155 µM

SMILES: O=C(NS(=O)(=O)Cc1ccccc1)c1ccc(CN(Cc2ccccn2)S(=O)(=O)c2ccc(Cl)cc2)cc1 [Example 11, N-(benzylsulfonyl)-4-{[[(4-chlorophenyl)sulfonyl](pyridin-2-ylmethyl)amino]methyl}benzamide]
- IC50 (CXCR3 [1]): 0.404 µM
- Ki (CXCR3 [2]): 0.1 µM

SMILES: O=C(NS(=O)(=O)c1cccc(Cl)c1)c1ccc(CN(Cc2ccccc2)S(=O)(=O)c2ccc(Cl)cc2)cc1 [Example 12, N-[(3-chlorophenyl)sulfonyl]-4-{[benzyl[(4-chlorophenyl)sulfonyl]amino]methyl}benzamide]
- IC50 (CXCR3 [1]): 0.865 µM
- Ki (CXCR3 [2]): 1.65 µM

SMILES: O=C(NS(=O)(=O)c1cccc(Cl)c1)c1ccc(CN(Cc2ccccn2)S(=O)(=O)c2ccc(Cl)cc2)cc1 [Example 13, N-[(3-chlorophenyl)sulfonyl]-4{[[(4-chlorophenyl)sulfonyl](pyridin-2-ylmethyl)amino]methyl}benzamide]
- IC50 (CXCR3 [1]): 0.138 µM
- Ki (CXCR3 [2]): 0.066 µM

SMILES: O=S(=O)(c1ccc(Cl)cc1)N(Cc1ccc(-c2nnn[nH]2)cc1)Cc1ccccn1 [Example 16, 4-chloro-N-(pyridin-2-ylmethyl)-N-[4-(1H-tetrazol-5-yl)benzyl]benzenesulfonamide]
- IC50 (CXCR3 [1]): 0.496 µM
- Ki (CXCR3 [2]): 0.092 µM

Second part, the compound after the results:

- Ki (CXCR3 [2]): 0.78 µM
- pIC50 (CXCR3 [3]): 5.77
SMILES: CCOc1ccc(S(=O)(=O)N(Cc2ccccc2)Cc2ccc(C(=O)NCC3CC3)cc2)cc1 [Example 18, 4-{[Benzyl-(4-ethoxy-benzenesulfonyl)-amino]-methyl}-N-cyclopropylmethylbenzamide]

- pIC50 (CXCR3 [4]): 6.28
- Ki (CXCR3 [2]): 0.197 µM
SMILES: CCOc1ccc(S(=O)(=O)N(Cc2ccccc2)Cc2ccc(C(=O)NCc3ccccc3)cc2)cc1 [Example 33]

- pIC50 (CXCR3 [4]): 7.05
- IC50 (CXCR3 [1]): 0.025 µM
- Ki (CXCR3 [2]): 0.015 µM
- pIC50 (CXCR3 [3]): 7.28
SMILES: O=C(NC1(c2ccccc2)CC1)c1ccc(CN(Cc2ccccn2)S(=O)(=O)c2ccc(Cl)cc2)cc1 [Example 40, 4-{[(4-Chloro-benzenesulfonyl)-pyridin-2-ylmethyl-amino]-methyl}-N-(1-phenyl-cyclopropyl)-benzamide]

- pIC50 (CXCR3 [4]): 6.28
- Ki (CXCR3 [2]): 0.161 µM
- pIC50 (CXCR3 [3]): 5.99
SMILES: CCOc1ccc(S(=O)(=O)N(Cc2ccc(-c3nnn[nH]3)cc2)Cc2ccccn2)cc1 [Example 42, 4-Ethoxy-N-(pyridin-2-ylmethyl)-N-[4-(2H-tetrazol-5-yl)benzyl]benzenesulfonamide]

- pIC50 (CXCR3 [4]): 6.57
- IC50 (CXCR3 [1]): 0.013 µM
- Ki (CXCR3 [2]): 0.01 µM
- pIC50 (CXCR3 [3]): 7.48
SMILES: N#Cc1ccc(S(=O)(=O)N(Cc2ccc(C(=O)NC3(c4ccccc4)CC3)cc2)Cc2ccccn2)cc1 [Example 44]

- pIC50 (CXCR3 [4]): 7.70
- IC50 (CXCR3 [1]): 0.01 µM
- pIC50 (CXCR3 [3]): 7.70
SMILES: N#Cc1ccc(S(=O)(=O)N(Cc2ccc(C(=O)NCC(O)c3ccccc3)cc2)Cc2ccccn2)cc1 (centres unmarked) [Example 102]

- pIC50 (CXCR3 [4]): 6.77
- IC50 (CXCR3 [1]): 0.07 µM
- pIC50 (CXCR3 [3]): 6.77
SMILES: O=C(Nc1ccc(CN(Cc2ccccn2)S(=O)(=O)c2ccc(Cl)cc2)cc1)C1(c2ccccc2)CC1 [Example 162, 1-Phenyl-cyclopropanecarboxylic acid (4-{[(4-chloro-benzenesulfonyl)-pyridin-2-ylmethyl-amino]-methyl}-phenyl)-amide]

- pIC50 (CXCR3 [4]): 7.70
- IC50 (CXCR3 [1]): 0.02 µM
- pIC50 (CXCR3 [3]): 6.92
SMILES: N#Cc1ccc(S(=O)(=O)N(Cc2ccc(NC(=O)C3(c4ccccc4)CC3)cc2)Cc2ccccn2)cc1 [Example 163]
